Source: ChEMBL document CHEMBL1201862, “PubChem BioAssay data set” (2004)
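Compound exposure: 48 hours, 5 concentrations, 96-well plates. At the GI50, growth is halved.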 Calls of active or inactive are those of the source. Rule as the data show it: active = GI50 up to about 1.1 µM and inactive = higher.

Key:
Assay in all cases: DTP human tumour cell line panel, 48 h
786-0 = system: 786-0
A498 = system: A498
BT-549 = system: BT-549
CCRF-CEM = system: CCRF-CEM
DU-145 = system: DU-145
HCT-116 = system: HCT-116
HOP-92 = system: HOP-92
K562 = system: K562
Malme-3M = system: Malme-3M
NCI-H226 = system: NCI-H226
NCI-H460 = system: NCI-H460
NCI/ADR-RES = system: NCI/ADR-RES
OVCAR-5 = system: OVCAR-5
PC-3 = system: PC-3
SK-MEL-2 = system: SK-MEL-2
SK-OV-3 = system: SK-OV-3
T47D = system: T47D
TK-10 = system: TK-10
U-251 = system: U-251
UO-31 = system: UO-31

O=C(c1ccsc1)c1cc2c(s1)C(=O)c1ccsc1C2=O
GI50 (786-0): 0.189 µM (active) | GI50 (A498): 1.58 µM (inactive) | GI50 (BT-549): 0.0807 µM (active) | GI50 (CCRF-CEM): 0.155 µM (active) | GI50 (DU-145): 0.159 µM (active) | GI50 (HCT-116): 0.195 µM (active) | GI50 (HOP-92): 0.34 µM (active) | GI50 (K562): 0.184 µM (active) | GI50 (Malme-3M): 0.0202 µM (active) | GI50 (NCI-H226): 0.552 µM (active) | GI50 (NCI-H460): 0.184 µM (active) | GI50 (NCI/ADR-RES): 0.137 µM (active) | GI50 (OVCAR-5): 0.552 µM (active) | GI50 (PC-3): 0.29 µM (active) | GI50 (SK-MEL-2): 0.281 µM (active) | GI50 (SK-OV-3): 1.61 µM (inactive) | GI50 (T47D): 0.235 µM (active) | GI50 (TK-10): 0.64 µM (active) | GI50 (U-251): 0.159 µM (active) | GI50 (UO-31): 0.0893 µM (active)

Sc1ncc(-c2cncc(-c3cnc(S)nc3)n2)cn1
GI50 (786-0): > 100 µM (inactive) | GI50 (A498): 52.2 µM (inactive) | GI50 (BT-549): > 100 µM (inactive) | GI50 (CCRF-CEM): > 100 µM (inactive) | GI50 (DU-145): > 100 µM (inactive) | GI50 (HCT-116): > 100 µM (inactive) | GI50 (HOP-92): > 100 µM (inactive) | GI50 (K562): > 100 µM (inactive) | GI50 (Malme-3M): > 100 µM (inactive) | GI50 (NCI-H226): > 100 µM (inactive) | GI50 (NCI-H460): > 100 µM (inactive) | GI50 (NCI/ADR-RES): > 100 µM (inactive) | GI50 (OVCAR-5): > 100 µM (inactive) | GI50 (PC-3): > 100 µM (inactive) | GI50 (SK-MEL-2): > 100 µM (inactive) | GI50 (SK-OV-3): > 100 µM (inactive) | GI50 (T47D): > 100 µM (inactive) | GI50 (TK-10): > 100 µM (inactive) | GI50 (U-251): > 100 µM (inactive) | GI50 (UO-31): > 100 µM (inactive)

C=CC(=O)N1C/C(=C\c2ccc(OC)cc2)C(=O)/C(=C/c2ccc(OC)cc2)C1
GI50 (786-0): 1.74 µM (inactive) | GI50 (A498): 1.73 µM (inactive) | GI50 (BT-549): 1.71 µM (inactive) | GI50 (CCRF-CEM): 1.78 µM (inactive) | GI50 (DU-145): 3.91 µM (inactive) | GI50 (HCT-116): 0.219 µM (active) | GI50 (HOP-92): 6.03 µM (inactive) | GI50 (K562): 2.86 µM (inactive) | GI50 (Malme-3M): 2.19 µM (inactive) | GI50 (NCI-H226): 2 µM (inactive) | GI50 (NCI-H460): 1.9 µM (inactive) | GI50 (NCI/ADR-RES): 3.12 µM (inactive) | GI50 (OVCAR-5): 4.9 µM (inactive) | GI50 (PC-3): 1.83 µM (inactive) | GI50 (SK-MEL-2): 2.68 µM (inactive) | GI50 (SK-OV-3): 3.48 µM (inactive) | GI50 (T47D): 6.56 µM (inactive) | GI50 (TK-10): 3.66 µM (inactive) | GI50 (U-251): 1.97 µM (inactive) | GI50 (UO-31): 1.77 µM (inactive)

CC1(/C=C/CCSc2ccccc2)CC(=O)C2CC1C2(C)C (stereo not given)
GI50 (786-0): 20.2 µM (inactive) | GI50 (A498): 44.7 µM (inactive) | GI50 (BT-549): 9.18 µM (inactive) | GI50 (CCRF-CEM): 6.49 µM (inactive) | GI50 (DU-145): 44.3 µM (inactive) | GI50 (HCT-116): 13 µM (inactive) | GI50 (HOP-92): 17.9 µM (inactive) | GI50 (K562): 5.79 µM (inactive) | GI50 (Malme-3M): 21.3 µM (inactive) | GI50 (NCI-H226): 24.8 µM (inactive) | GI50 (NCI-H460): 17.3 µM (inactive) | GI50 (NCI/ADR-RES): 11 µM (inactive) | GI50 (OVCAR-5): 44.9 µM (inactive) | GI50 (PC-3): 6.08 µM (inactive) | GI50 (SK-MEL-2): 14.3 µM (inactive) | GI50 (SK-OV-3): > 72.4 µM (inactive) | GI50 (T47D): 11.2 µM (inactive) | GI50 (TK-10): 14.9 µM (inactive) | GI50 (U-251): 14.9 µM (inactive) | GI50 (UO-31): 5.61 µM (inactive)

Nc1ccc(S(=O)(=O)Nc2cnc3ccccc3n2)cc1 [SULFAQUINOXALINE]
GI50 (786-0): > 100 µM (inactive) | GI50 (A498): > 100 µM (inactive) | GI50 (BT-549): > 100 µM (inactive) | GI50 (CCRF-CEM): > 100 µM (inactive) | GI50 (DU-145): > 100 µM (inactive) | GI50 (HCT-116): > 100 µM (inactive) | GI50 (HOP-92): > 100 µM (inactive) | GI50 (K562): > 100 µM (inactive) | GI50 (Malme-3M): > 96.6 µM (inactive) | GI50 (NCI-H226): > 100 µM (inactive) | GI50 (NCI-H460): > 100 µM (inactive) | GI50 (NCI/ADR-RES): > 100 µM (inactive) | GI50 (OVCAR-5): > 100 µM (inactive) | GI50 (PC-3): > 100 µM (inactive) | GI50 (SK-MEL-2): > 52.1 µM (inactive) | GI50 (SK-OV-3): > 100 µM (inactive) | GI50 (T47D): > 100 µM (inactive) | GI50 (TK-10): > 100 µM (inactive) | GI50 (U-251): > 100 µM (inactive) | GI50 (UO-31): > 100 µM (inactive)
